Reference: patent US8957087B2, “Heterocyclic substituted acardite derivate and application thereof” (Jiangsu Provincial Institute of Materia Medica Co., Ltd., priority 2009, dated 2015)
Read-outs that look alike come from different tables or passages of the source.

Assays:
[1] = test system: lung cancer cell A549; experiment: Effects on the adhesive ability of lung cancer cell A549; format: cell-based, human; details: Final concentration 1 x 1.0*10^(−5) mol/L
Protocol: 6. Effects of tested compounds on the adhesive ability of lung cancer cell A549
[Test materials] gelatin, CCK8, poly-lysine (PLL), A549 cell stains, 1640 medium containing 10% FBS
(§1) [Tested compound] Compounds 1-38 to be tested
(§2) [Positive control medicine] Sorafenib, compounds A′, B′, C′ with no substituent or only amino formyl in A ring
(§3) The inhibition rate is calculated as follows: […]
Dosing dosing cells without cell group (gelatin adhesive OD/PLL adhesion OD)−Dosing cell group (gelatin adhesive OD/PLL adhesion OD value)
Dosing dosing cells without cell group (gelatin adhesive OD/PLL adhesion OD value)

[2] = test system: Raf-1(truncated); experiment: Raf-1 inhibitor screening by chemoluminescence method; format: biochemical; details: Final concentration 1 x 1.0*10^−5 mol/ml
Description: 1. Inhibitory activity of the compound of the present invention on raf kinase
Raf-1 inhibitor screening by chemoluminescence method
Westernblot electrophoresis apparatus Rotaryshaker
Raf-1(truncated), Magnesium/ATP Cocktail, MEK1 unactive

[3] = test system: mice S180 sarcoma; experiment: Experimental therapeutic action on S180 sarcoma mice; details: mice S180 sarcoma, 60 mg/kg orally for 9 days
Protocol: Experimental therapeutic action of the compound in the present invention on S180 sarcoma mice
18-25 g female ICR mice and well grown 7-11 day old mice sarcoma S180 tumor seeds were selected, and the seeds were inoculated into the subcutaneous at the right axillary. After inoculated 24 hours, these mice were randomly divided into cages and orally administrated 60 mg/kg for 9 days. On 10 day, the animals were killed and weighed, and the tumor weights were weighed to calculate average tumor weight in each group, followed by calculating the tumor inhibition rate according to the following formula and T test.

[4] = test system: Human colon cancer HT-29 transplantable tumor; experiment: Human colon cancer HT-29 transplantable tumor in nude mice; details: HT-29 in nude mice, 60 mg/kg ig 9 times
[5] = test system: human lung cancer A549 transplantation tumor; format: in vivo; details: BALB/cA nude mice; 60 mg/kg, 6 times every week for 3 weeks; Sorafenib oral 60 mg/kg
Protocol: 9. Tumor inhibition rate of tested compounds on human lung cancer A549 cell transplantation model in nude mice
(§4) [Test animals] female BALB/cA nude mice, 35-40 days old, with weight of 18-22g. There were 12 mice in the negative conrol group and 6 mice in the treatment group.
(§5) The dosage of the compound was 60 mg/kg, 6 times every week for 3 weeks. […] Equal amount of normal saline was administrated in the negative control group. Observe for one week after administration.

[6] = test system: human umbilical vein endothelial cell HUVEC; experiment: Growth of human umbilical vein endothelial cell HUVEC by CCK8 method; format: cell-based; details: Final concentration 1 x 1.0*10^(−5) mol/L
Description: 7. Effects of tested compounds on the growth of human umbilical vein endothelial cell HUVEC cell by CCK8 method
[Test materials] CCK8, human umbilical vein endothelial cell HUVEC cell, 1640 medium containing 10% FBS
as §1, §2
(§6) Relative OD value of conrol well=OD value of control well−OD value of blank well
(§7) Relative OD value of drug well=OD value of drug well−OD value of blank well

[7] = test system: human umbilical vein endothelial cell HUVEC; experiment: Lumen formation ability of HUVEC (Matrigel method); format: cell-based; details: Final concentration 1 x 1.0*10^(−5) mol/L
Description: 8. Inhibition effects of compounds on the lumen formation ability of human umbilical vein endothelial cell HUVEC
[Experimental principles] The human umbilical vein endothelial cells have ability of spontaneously forming blood lumen on Matrigel, which can be used to simulate the process of angiogenesis in vivo. We used Matrigel method to investigate the effects of the compound on the lumen formation ability of human umbilical vein endothelial cell HUVEC.
[Test materials] HUVEC (taking generation 3 to 5 cells for experiments after obtained from primary separation and cultured at 37 under the conditions of 5% CO2), Matrigel, cell culture medium M199.
(§8) [Tested compound] Compounds 1-38
as §2, §3

[8] = test system: human high-metastic lung cancer cell 95D; experiment: Inhibition of human high-metastic lung cancer cell 95D migration (Boyden Chamber Transwell); format: cell-based; details: Final concentration 1 x 1.0*10^(−5) mol/L
Protocol: 5 Inhibition effects of compounds on human high-metastic lung cancer cell 95D migration
[Test materials] Boyden Chamber Transwell chamber (with pore size of 8 μm), human high-metastic lung cancer cell 95D cell strain, 1640 medium containing 10% FBS, 1640 medium containing no serum
as §8, §2, §3

[9] = test system: renal carcinoma cell line GCR-1 transplanted tumor; format: in vivo, BALB/cA nude mice; details: BALB/cA nude mice; 60 mg/kg, 6 times every week for 3 weeks; Sorafenib oral 60 mg/kg
Protocol: 11. Tumor inhibition rate of medicines on renal carcinoma cell line GCR-1 transplanted tumor model in nude mice
as §4
[Test method] […] The dosage of the medicine was 60 mg/kg, 6 times every week for 3 weeks. […] Equal amount of normal saline was administrated in the negative control group. Observe for one week after administration.

[10] = test system: human lung cancer cell strain A549; experiment: MTT assay, inhibition of growth of human lung cancer cell strain A549; format: cell-based
Protocol: 4. Using 3-(4,5-dimethylthiazol-2-yl)-2,5-diphenyl tetrazolium bromide assay (MTT) to detect the inhibition effects on the growth of human lung cancer cell strain A549
[Test materials] MTT working solution, F12 medium containing 10% FBS, continuous injectors
as §8, §2
The inhibition rate is calculated as follows:
as §6, §7

[11] = test system: human liver cancer cell bel-7402 transplantation tumor; format: in vivo; details: 60 mg/kg
Protocol: 10. Tumor inhibition rate of tested compounds on human liver cancer cell bel-7402 transplantation tumor model in nude mice
as §4, §5

[12] = Final concentration 1 x 1.0*10^(−5) mol/L
[13] = BALB/cA nude mice, 6 times every week for 3 weeks, Sorafenib oral 60 mg/kg

CNC(=O)c1cc(Oc2ccc(NC(=O)Nc3ccc(Cl)c(C(F)(F)F)c3)cc2)c(C)[nH]1 [Compound 13, N-(4-chloro-3-(trifluoromethyl)phenyl)-N′-(4-(2-(N-methylaminoformoxyl)-4-(5-methyl-pyrryl)oxy)phenyl)urea] was tested, and the “Inhibition rate, adhesion ability of human lung cancer cell A549” value (“Inhibition rate, adhesion ability” for short) [1] was 63.39%, the “Inhibition rate % on raf kinase” value [2] was 55.0% and the “Tumor growth inhibition rate (%)” value [3] was 21.2%. The “Relative tumor reproduction rate T/C (%)” value [4] was 81.2%, the “Relative tumor reproduction rate T/C (%) on human lung cancer A549 transplantation tumor in nude mice” value [5] was 38.4% and the “Inhibition rate, growth of HUVEC cell” value [6] was 24.23%. The “Inhibition rate, lumen formation ability of HUVEC” value [7] was 53.36%, the “Inhibition rate, 95D cell strain migration” value [8] was 65.45% and the “Relative tumor reproduction rate T/C (%) on human renal carcinoma GCR-1 cell transplanted tumor model in nude mice” value [9] was 28.3%. For the same compound, the “Inhibition rate, growth of human lung cancer cell A549” value [10, 12] was 64.23% and the “Relative tumor reproduction rate T/C (%) on human liver cancer cell bel-7402 transplantation tumor model in nude mice” value [11, 13] was 29.8%.

With CNC(=O)c1ncc(Oc2ccc(NC(=O)Nc3ccc(F)c(C(F)(F)F)c3)cc2)c(OC)n1 [Compound 8, N-(4-fluoro-3-(trifluoromethyl)phenyl)-N′-(4-(2-(N-methylaminoformoxyl)-5-(4-methoxypyrimidinyl)oxy)phenyl)urea] the “Inhibition rate, adhesion ability” value [1] was 61.56%, the “Tumor growth inhibition rate (%)” value [3] was 58.2% and the “Relative tumor reproduction rate T/C (%)” value [4] was 37.6%. The “Relative tumor reproduction rate T/C (%) on human lung cancer A549 transplantation tumor in nude mice” value [5] was 30.5%, the “Inhibition rate, growth of HUVEC cell” value [6] was 13.67% and the “Inhibition rate, lumen formation ability of HUVEC” value [7] was 78.59%. For the same compound, the “Inhibition rate, 95D cell strain migration” value [8] was 89.56%, the “Relative tumor reproduction rate T/C (%) on human renal carcinoma GCR-1 cell transplanted tumor model in nude mice” value [9] was 29.1% and the “Inhibition rate, growth of human lung cancer cell A549” value [10, 12] was 60.67%. The “Relative tumor reproduction rate T/C (%) on human liver cancer cell bel-7402 transplantation tumor model in nude mice” value [11, 13] was 30.6%.

“N-(4-fluoro-3-(trifluoromethyl)phenyl)-N′-(4-(4-pyrryl)oxy)phenyl)urea [Compound C′, reference compound]” was tested, and the “Inhibition rate, adhesion ability” value [1] was 68.62%, the “Relative tumor reproduction rate T/C (%) on human lung cancer A549 transplantation tumor in nude mice” value [5] was 36.6% and the “Inhibition rate, growth of HUVEC cell” value [6] was 22.27%. The “Inhibition rate, lumen formation ability of HUVEC” value [7] was 60.50%, the “Inhibition rate, 95D cell strain migration” value [8] was 63.20% and the “Relative tumor reproduction rate T/C (%) on human renal carcinoma GCR-1 cell transplanted tumor model in nude mice” value [9] was 35.6%. For the same compound, the “Inhibition rate, growth of human lung cancer cell A549” value [10] was 62.25% and the “Relative tumor reproduction rate T/C (%) on human liver cancer cell bel-7402 transplantation tumor model in nude mice” value [11, 13] was 32.6%.

For CNC(=O)c1nc(Oc2ccc(NC(=O)Nc3ccc(Br)c(C(F)(F)F)c3)cc2)c2ccc(F)cc2n1 [Compound 6, N-(4-bromo-3-(trifluoromethyl)phenyl)-N′-(4-(2-(N-methylaminoformoxyl)-4-(7 fluoroquinazolinyl)oxy)phenyl)urea], the “Inhibition rate, adhesion ability” value [1] was 93.59%, the “Inhibition rate % on raf kinase” value [2] was 80.1% and the “Tumor growth inhibition rate (%)” value [3] was 51.2%. The “Relative tumor reproduction rate T/C (%)” value [4] was 39.58%, the “Relative tumor reproduction rate T/C (%) on human lung cancer A549 transplantation tumor in nude mice” value [5] was 15.9% and the “Inhibition rate, growth of HUVEC cell” value [6] was 7.50%. The “Inhibition rate, lumen formation ability of HUVEC” value [7] was 90.55%, the “Inhibition rate, 95D cell strain migration” value [8] was 93.71% and the “Relative tumor reproduction rate T/C (%) on human renal carcinoma GCR-1 cell transplanted tumor model in nude mice” value [9] was 12.5%. For the same compound, the “Inhibition rate, growth of human lung cancer cell A549” value [10, 12] was 92.50% and the “Relative tumor reproduction rate T/C (%) on human liver cancer cell bel-7402 transplantation tumor model in nude mice” value [11, 13] was 19.5%.

In the case of CCc1cc(NC(=O)Nc2ccc(Oc3ccnc4cc(F)c(OC)cc34)cc2)ccc1Cl [Compound 31, N-(4-chloro-3-ethylphenyl)-N′-(4-(4-(6-methoxyl-7-fluoro-quinolinyl)oxy)phenyl)urea], the “Inhibition rate, adhesion ability” value [1] is reported as 66.77%, the “Inhibition rate % on raf kinase” value [2] is reported as 89.4% and the “Tumor growth inhibition rate (%)” value [3] is reported as 50.3%. The “Relative tumor reproduction rate T/C (%)” value [4] was 50.3%, the “Relative tumor reproduction rate T/C (%) on human lung cancer A549 transplantation tumor in nude mice” value [5] was 38.7% and the “Inhibition rate, growth of HUVEC cell” value [6] was 26.70%. The “Inhibition rate, lumen formation ability of HUVEC” value [7] was 66.77%, the “Inhibition rate, 95D cell strain migration” value [8] was 76.18% and the “Relative tumor reproduction rate T/C (%) on human renal carcinoma GCR-1 cell transplanted tumor model in nude mice” value [9] was 31.4%. For the same compound, the “Inhibition rate, growth of human lung cancer cell A549” value [10] was 46.78% and the “Relative tumor reproduction rate T/C (%) on human liver cancer cell bel-7402 transplantation tumor model in nude mice” value [11, 13] was 33.4%.

For Cc1cc(Oc2ccc(NC(=O)Nc3ccc(Br)c(C(F)(F)F)c3)cc2)c[nH]1 [Compound 30, N-(4-bromo-3-(trifluoromethyl)phenyl)-N′-(4-(4-(2-methyl-pyrryl)oxy)phenyl)urea], the “Inhibition rate, adhesion ability” value [1] was 92.44%, the “Inhibition rate % on raf kinase” value [2] was 16.8% and the “Tumor growth inhibition rate (%)” value [3] was 55.2%. For the same compound, the “Relative tumor reproduction rate T/C (%)” value [4] was 79.5%, the “Relative tumor reproduction rate T/C (%) on human lung cancer A549 transplantation tumor in nude mice” value [5] was 13.1% and the “Inhibition rate, growth of HUVEC cell” value [6] was 25.46%. The “Inhibition rate, lumen formation ability of HUVEC” value [7] was 90.66%, the “Inhibition rate, 95D cell strain migration” value [8] was 69.62% and the “Relative tumor reproduction rate T/C (%) on human renal carcinoma GCR-1 cell transplanted tumor model in nude mice” value [9] was 10.2%. For the same compound, the “Inhibition rate, growth of human lung cancer cell A549” value [10] was 85.47% and the “Relative tumor reproduction rate T/C (%) on human liver cancer cell bel-7402 transplantation tumor model in nude mice” value [11, 13] was 16.1%.

O=C(Nc1ccc(Oc2ccnc3ccccc23)cc1)Nc1ccc(Cl)c(C(F)(F)F)c1 [Compound A′, reference compound] was tested, and the “Inhibition rate, adhesion ability” value [1] was 71.55%, the “Relative tumor reproduction rate T/C (%) on human lung cancer A549 transplantation tumor in nude mice” value [5] was 43.2% and the “Inhibition rate, growth of HUVEC cell” value [6] was 23.11%. The “Inhibition rate, lumen formation ability of HUVEC” value [7] was 60.51%, the “Inhibition rate, 95D cell strain migration” value [8] was 63.51% and the “Relative tumor reproduction rate T/C (%) on human renal carcinoma GCR-1 cell transplanted tumor model in nude mice” value [9] was 34.2%. For the same compound, the “Inhibition rate, growth of human lung cancer cell A549” value [10] was 58.51% and the “Relative tumor reproduction rate T/C (%) on human liver cancer cell bel-7402 transplantation tumor model in nude mice” value [11, 13] was 37.2%.

For O=C(Nc1ccc(Oc2ccncn2)cc1)Nc1ccc(Cl)c(C(F)(F)F)c1 [Compound B′, reference compound], the “Inhibition rate, adhesion ability” value [1] was 69.26%, the “Relative tumor reproduction rate T/C (%) on human lung cancer A549 transplantation tumor in nude mice” value [5] was 40.4% and the “Inhibition rate, growth of HUVEC cell” value [6] was 31.64%. For the same compound, the “Inhibition rate, lumen formation ability of HUVEC” value [7] was 61.62%, the “Inhibition rate, 95D cell strain migration” value [8] was 61.60% and the “Relative tumor reproduction rate T/C (%) on human renal carcinoma GCR-1 cell transplanted tumor model in nude mice” value [9] was 30.4%. For the same compound, the “Inhibition rate, growth of human lung cancer cell A549” value [10] was 61.62% and the “Relative tumor reproduction rate T/C (%) on human liver cancer cell bel-7402 transplantation tumor model in nude mice” value ([11]; mouse, in vivo, po) was 30.4%.
